This test concerns the target T1, recombinant human NaV1.8 stably transfected HEK cells (Homo sapiens, UniProt Q9Y5Y9).
T1 construct: expressed in transfected cells; host or cells: HEK cells, stably transfected
Kind of test: Compound profiling on NaV1.8, human NaV1.8 cell line, SyncroPatch384PE automated patch clamp assay (Example 115, third set of compounds, Table 27). Format: cell-based. The conditions noted are these: human NaV1.8 HEK cells, Table 27 (third set of compounds). As for the experimental part:
Compound Profiling on NaV1.8 Human NaV1.8 Cell Line SyncroPatch384PE Assay
Compounds were tested on recombinant human NaV1.8 stably transfected HEK cells using the SyncroPatch384PE system, an automated patch clamp device. Cells were cultured at 37° C./5% CO2 in DMEM medium supplemented with GlutaMAX I, NEAA 1%, FBS 10% and seeded in T175 flasks. Cells were cultured at 30° C. one day prior to recording sodium currents. On the day of the recordings, cells were detached with 0.05% Trypsin-EDTA, resuspended in serum free DMEM medium and placed into the SyncroPatch384PE 6° C. pre-cooled cell hotel and shaken at 200 rpm. Intracellular solution (IC) contained, in mM: 10, CsCl; 110, CsF; 20, EGTA; 10, HEPES. Extracellular solution (EC) contained, in mM: 140, NaCl; 4, KCl; 5, Glucose; 10, HEPES; 2, CaCl2; 1, MgCl2. Washing solution contained, in mM: 40, NMDG; 100, NaCl; 4, KCl; 10, Glucose; 10, HEPES; 5, CaCl2; 1, MgCl2.
Compounds were tested in quadruplicates in 0.1% DMSO and 0.030% Pluronic Acid. Compounds were diluted 1:3.33 in EC solution to create a 10-point concentration response curve, spanning a final concentration range from 10-0.0002 μM in the assay plate. Compounds with low nM potency were retested using a lower concentration range (1-0.00002 μM). Each plate contained tetracaine and another tool compound as positive controls. Up to 7 compounds were tested on one plate. 150 μM tetracaine and 0.1% DMSO were used as high and low controls, respectively.
Whole cell patch clamp recordings were conducted according to Nanion's standard procedure for SyncroPatch384PE®. Cells were held at a holding potential of −120 mV. A depolarization step to 10 mV for 30 ms was applied (P1 measurement), followed by a hyperpolarization step to −100 mV for 100 ms. An inactivation step at −40 mV for 10 sec was applied before stepping to −100 mV for 20 ms, followed by a step to 10 mV for 30 ms (P2 measurement) and then back to −100 mV for 30 ms. Sweep interval was 15 sec with a sampling rate of 10 kHz. Following establishment of the whole-cell configuration in EC, two washing steps with reference buffer were performed to stabilize the baseline. Compounds were then applied by the SynchroPatch into each well and the current was recorded for five minutes in EC, followed by application of tetracaine to achieve full block at the end of the experiment. The potency of the compounds was assessed on two read-outs, resting state block (P1 measurement) or inactivated state block (P2 measurement) to obtain IC50 values. Values were normalized to high (tetracaine) and low (DMSO) controls.
(In general: The patch-clamp technique gives a direct electrical read-out from membranes.)

[1] abbreviates: inactivated state block (P2 measurement), read-out: P2 IC50.
The mark [2] stands for this setting: resting state block (P1 measurement), read-out: P1 IC50.

Structures are written as SMILES. pIC50: −log10 of the molar value. Read-outs that look alike come from different tables or passages of the source.

In general, pIC50 refers to the IC50 on a negative log10 scale, so that one unit is a factor of ten.

T1 sequence (Q9Y5Y9 whole entry): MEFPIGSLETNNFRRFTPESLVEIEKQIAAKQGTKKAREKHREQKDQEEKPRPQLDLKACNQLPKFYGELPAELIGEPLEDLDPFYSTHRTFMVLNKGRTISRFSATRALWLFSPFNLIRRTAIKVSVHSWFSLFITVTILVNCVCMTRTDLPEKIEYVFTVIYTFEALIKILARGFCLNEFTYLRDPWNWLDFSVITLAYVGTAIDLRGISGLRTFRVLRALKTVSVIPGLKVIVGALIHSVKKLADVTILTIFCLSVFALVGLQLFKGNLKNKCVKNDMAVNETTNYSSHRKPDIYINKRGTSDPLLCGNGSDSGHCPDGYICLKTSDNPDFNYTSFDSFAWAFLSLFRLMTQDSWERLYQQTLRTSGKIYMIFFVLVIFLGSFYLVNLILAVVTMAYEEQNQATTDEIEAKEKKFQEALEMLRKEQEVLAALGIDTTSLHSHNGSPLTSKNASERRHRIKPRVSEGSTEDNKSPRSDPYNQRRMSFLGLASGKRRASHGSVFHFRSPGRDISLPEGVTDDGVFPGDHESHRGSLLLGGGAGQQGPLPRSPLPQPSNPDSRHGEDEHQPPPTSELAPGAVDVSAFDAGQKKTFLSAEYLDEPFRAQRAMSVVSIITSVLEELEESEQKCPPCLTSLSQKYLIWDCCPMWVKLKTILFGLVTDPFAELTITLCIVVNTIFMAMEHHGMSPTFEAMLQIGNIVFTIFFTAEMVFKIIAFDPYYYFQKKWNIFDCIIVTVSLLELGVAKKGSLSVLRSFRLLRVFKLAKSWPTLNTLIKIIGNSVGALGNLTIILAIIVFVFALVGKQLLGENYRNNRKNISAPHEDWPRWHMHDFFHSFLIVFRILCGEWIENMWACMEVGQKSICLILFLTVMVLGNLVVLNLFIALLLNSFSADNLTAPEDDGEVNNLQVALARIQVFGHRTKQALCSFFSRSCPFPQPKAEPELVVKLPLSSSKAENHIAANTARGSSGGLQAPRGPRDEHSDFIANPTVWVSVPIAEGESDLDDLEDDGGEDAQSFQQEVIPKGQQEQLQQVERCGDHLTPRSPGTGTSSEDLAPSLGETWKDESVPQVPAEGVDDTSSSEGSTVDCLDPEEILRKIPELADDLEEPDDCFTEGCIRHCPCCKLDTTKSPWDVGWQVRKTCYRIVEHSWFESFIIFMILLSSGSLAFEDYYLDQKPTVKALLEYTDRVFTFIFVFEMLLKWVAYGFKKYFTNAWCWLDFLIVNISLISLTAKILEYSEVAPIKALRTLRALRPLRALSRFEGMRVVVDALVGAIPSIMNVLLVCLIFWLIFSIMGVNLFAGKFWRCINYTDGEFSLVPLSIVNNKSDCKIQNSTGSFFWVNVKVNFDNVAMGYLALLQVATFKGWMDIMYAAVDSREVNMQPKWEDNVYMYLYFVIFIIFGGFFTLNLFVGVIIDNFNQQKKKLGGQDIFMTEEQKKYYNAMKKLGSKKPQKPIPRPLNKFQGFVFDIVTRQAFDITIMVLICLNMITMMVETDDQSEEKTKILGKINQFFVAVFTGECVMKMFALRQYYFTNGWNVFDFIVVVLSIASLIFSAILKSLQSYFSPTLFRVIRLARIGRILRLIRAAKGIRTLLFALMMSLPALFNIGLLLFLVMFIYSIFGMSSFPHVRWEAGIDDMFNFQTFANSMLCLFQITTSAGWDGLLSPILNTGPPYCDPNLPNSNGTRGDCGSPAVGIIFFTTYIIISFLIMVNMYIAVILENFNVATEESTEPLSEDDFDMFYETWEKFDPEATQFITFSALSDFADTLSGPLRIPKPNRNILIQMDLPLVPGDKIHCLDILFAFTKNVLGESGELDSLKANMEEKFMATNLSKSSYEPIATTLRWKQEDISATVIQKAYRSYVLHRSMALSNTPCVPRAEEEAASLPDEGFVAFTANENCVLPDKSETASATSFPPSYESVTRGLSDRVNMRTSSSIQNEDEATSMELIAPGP

Regarding `COc1cc(F)ccc1Oc1nnc(C(F)(F)F)cc1C(=O)Nc1cncc(C(N)=O)n1` [Compound 128, N-(6-Carbamoylpyrazin-2-yl)-3-(4-fluoro-2-methoxyphenoxy)-6-(trifluoromethyl)pyridazine-4-carboxamide], the negative logarithm of the IC50 (pIC50) under setting [1] is under 5.30 and the pIC50 under setting [2] is under 5.30.
As for `CS(=O)(=O)c1ccc(F)c(NC(=O)c2cc(C(F)(F)F)nnc2Oc2ccc(F)cc2Cl)c1` [Compound 72], the pIC50 is at least 6.70 under setting [1] and at least 6.70 under setting [2].
With `Cc1cc(F)ccc1Oc1nnc(C(F)(F)F)cc1C(=O)Nc1ccn2cnnc2c1` [Compound 11], the pIC50 runs as follows: under setting [1], 5.30 to 6.00; under setting [2], 5.30 to 6.00.
With `Cc1cc(F)ccc1Oc1nnc(C(F)(F)F)cc1C(=O)Nc1cccc(S(C)(=O)=O)n1` [Compound 4], the pIC50 under setting [1] is under 5.30 and the pIC50 under setting [2] was under 5.30.
Consider `CS(=O)(=O)c1cccc(NC(=O)c2cc(C(F)(F)F)nnc2Oc2ccc(F)cc2O)c1` [Compound 130, 3-(4-Fluoro-2-hydroxyphenoxy)-N-(3-(methylsulfonyl)phenyl)-6-(trifluoromethyl)pyridazine-4-carboxamide], for which the pIC50 reads like this: under setting [1], 5.30 to 6.00; under setting [2], under 5.30.
In the case of `O=C(Nc1ccc[n+]([O-])c1)c1cc(C(F)(F)F)nnc1Oc1ccc(F)cc1Cl` [Compound 62], the pIC50 reads like this: under setting [1], under 5.30; under setting [2], under 5.30.
On to `Cc1ccc(F)cc1Oc1nnc(C(F)(F)F)cc1C(=O)Nc1cccc(S(C)(=O)=O)c1` [Compound 70], for which the negative logarithm of the IC50 (pIC50) under setting [1] was 6.00 to 6.30 and the pIC50 under setting [2] was 6.00 to 6.30.
As for `Cc1cc(F)ccc1Oc1nnc(C(F)(F)F)cc1C(=O)Nc1cccc(NS(C)(=O)=O)c1` [Compound 8], the pIC50 runs as follows: under setting [1], 5.30 to 6.00; under setting [2], 5.30 to 6.00.
Regarding `COc1cc(F)ccc1Oc1nnc(C(F)(F)F)cc1C(=O)Nc1ccnc(C(N)=O)c1` [Compound 126, N-(2-Carbamoylpyridin-4-yl)-3-(4-fluoro-2-methoxyphenoxy)-6-(trifluoromethyl)pyridazine-4-carboxamide], the pIC50 runs as follows: under setting [1], at least 6.70; under setting [2], at least 6.70.
Take `NC(=O)c1cncc(NC(=O)c2cc(C(F)(F)F)nnc2Oc2cc(F)ccc2Cl)c1` [Compound 84]: the pIC50 under setting [1] is under 5.30 and the pIC50 under setting [2] was under 5.30.
Turning to `COc1cc(F)ccc1Oc1nnc(C(F)(F)F)cc1C(=O)Nc1ccc(C(N)=O)cc1` [Compound 27], the pIC50 under setting [1] was at least 6.70 and the pIC50 under setting [2] was at least 6.70.
In the case of `CS(=O)(=O)c1cc(NC(=O)c2cc(C(F)(F)F)nnc2Oc2ccc(F)cc2Cl)ccn1` [Compound 65], the pIC50 under setting [1] was 6.00 to 6.30 and the pIC50 under setting [2] is 6.00 to 6.30.
As to `COc1cc(C#N)ccc1Oc1nnc(C(F)(F)F)cc1C(=O)Nc1cc(S(C)(=O)=O)ccc1F` [Compound 77], the pIC50 runs as follows: under setting [1], 6.30 to 6.70; under setting [2], 6.30 to 6.70.
For the compound `COc1cc(F)ccc1Oc1nnc(C(F)(F)F)cc1C(=O)Nc1cccc(NS(C)(=O)=O)c1` [Compound 18], the pIC50 reads like this: under setting [1], 6.00 to 6.30; under setting [2], 5.30 to 6.00.
Take `Cc1cc(F)ccc1Oc1nnc(C(F)(F)F)cc1C(=O)Nc1cccc2nncn12` [Compound 134, 3-(4-Fluoro-2-methyl-phenoxy)-N-([1,2,4]triazolo[4,3-a]pyridin-5-yl)-6-(trifluoromethyl)pyridazine-4-carboxamide]: the pIC50 is, setting by setting: under setting [1], under 5.30; under setting [2], under 5.30.
Regarding `Cc1cc(F)ccc1Oc1nnc(C(F)(F)F)cc1C(=O)Nc1ccnnc1` [Compound 59, 3-(4-Fluoro-2-methyl-phenoxy)-N-pyridazin-4-yl-6-(trifluoromethyl)pyridazine-4-carboxamide], the pIC50 is 6.30 to 6.70 under setting [1] and 6.00 to 6.30 under setting [2].
Consider `Cc1cc(F)ccc1Oc1nnc(C(F)(F)F)cc1C(=O)Nc1ccc(S(N)(=O)=O)cc1` [Compound 48], for which the pIC50 under setting [1] is 5.30 to 6.00 and the pIC50 under setting [2] is 6.00 to 6.30.
With `Cc1cc(F)ccc1Oc1nnc(C(F)(F)F)cc1C(=O)Nc1cccc(CS(C)(=O)=O)c1` [Compound 10], the pIC50 by setting is: under setting [1], under 5.30; under setting [2], under 5.30.
Regarding `CS(=O)(=O)c1cccc(NC(=O)c2cc(C(F)(F)F)nnc2Oc2cc(F)ccc2Cl)c1` [Compound 73], the pIC50 under setting [1] was 6.30 to 6.70 and the pIC50 under setting [2] is 6.30 to 6.70.
Regarding `CNC(=O)c1cccc(NC(=O)c2cc(C(F)(F)F)nnc2Oc2ccc(F)cc2OC)c1` [Compound 129, 3-(4-Fluoro-2-methoxyphenoxy)-N-(3-(methylcarbamoyl)phenyl)-6-(trifluoromethyl)pyridazine-4-carboxamide], the pIC50 is, setting by setting: under setting [1], 6.30 to 6.70; under setting [2], 6.30 to 6.70.
As to `Cc1cc(F)ccc1Oc1nnc(C(F)(F)F)cc1C(=O)Nc1cccc([S@@](C)(=N)=O)c1` [Compound 103, (S)-3-(4-fluoro-2-methylphenoxy)-N-(3-(S-methylsulfonimidoyl)phenyl)-6-(trifluoromethyl)pyridazine-4-carboxamide], the pIC50 runs as follows: under setting [1], 6.30 to 6.70; under setting [2], under 5.30.
The matching figures for `COc1cc(F)ccc1Oc1nnc(C(F)(F)F)cc1C(=O)Nc1ccnc(S(N)(=O)=O)c1` [Compound 50]: at least 6.70 and at least 6.70.
For the compound `Cc1cc(Br)ccc1Oc1nnc(C(F)(F)F)cc1C(=O)Nc1ccc(C(N)=O)cc1` [Compound 83], the pIC50 under setting [1] is at least 6.70 and the pIC50 under setting [2] was at least 6.70.
On to `Cc1cc(F)ccc1Oc1nnc(C(F)(F)F)cc1C(=O)Nc1ccc(=O)[nH]c1` [Compound 41], for which the pIC50 by setting is: under setting [1], under 5.30; under setting [2], 5.30 to 6.00.
Taken in the same sequence, the figures for `COc1cc(F)ccc1Oc1nnc(C)cc1C(=O)Nc1cccc(S(C)(=N)=O)c1` (centres unmarked) [Compound 94, 3-(4-Fluoro-2-methoxyphenoxy)-6-methyl-N-(3-(S-methylsulfonimidoyl)phenyl)pyridazine-4-carboxamide] were under 5.30 and 5.30 to 6.00.
Taken in the same sequence, the figures for `COc1cc(C#N)ccc1Oc1nnc(C(F)(F)F)cc1C(=O)Nc1cccc(S(C)(=O)=O)c1` [Compound 75] were at least 6.70 and at least 6.70.
The matching figures for `CNC(=O)c1ccc(NC(=O)c2cc(C(F)(F)F)nnc2Oc2ccc(F)cc2OC)cc1` [Compound 127, 3-(4-Fluoro-2-methoxyphenoxy)-N-(4-(methylcarbamoyl)phenyl)-6-(trifluoromethyl)pyridazine-4-carboxamide]: 6.00 to 6.30 and 6.00 to 6.30.
Take `Cc1ccc(F)cc1Oc1nnc(C(F)(F)F)cc1C(=O)Nc1cc(S(C)(=O)=O)ccc1F` [Compound 71]: the pIC50 is, setting by setting: under setting [1], under 5.30; under setting [2], under 5.30.
Regarding `COc1ccc(Oc2nnc(C(F)(F)F)cc2C(=O)Nc2cccc(S(C)(=O)=O)c2)c(C)c1` [Compound 53], the negative logarithm of the IC50 (pIC50) reads like this: under setting [1], at least 6.70; under setting [2], at least 6.70.
Consider `COc1cc(F)ccc1Oc1nnc(C(F)(F)F)cc1C(=O)Nc1cc(S(C)(=O)=O)ccc1F` [Compound 23], for which the pIC50 by setting is: under setting [1], 6.30 to 6.70; under setting [2], 6.30 to 6.70.
Take `Cc1cc(Br)ccc1Oc1nnc(C(F)(F)F)cc1C(=O)Nc1cccc(S(C)(=N)=O)c1` (centres unmarked) [Compound 117, 3-(4-Bromo-2-methylphenoxy)-N-(3-(S-methylsulfonimidoyl)phenyl)-6-(trifluoromethyl)pyridazine-4-carboxamide]: the pIC50 under setting [1] was at least 6.70 and the pIC50 under setting [2] is at least 6.70.
As to `Cc1cc(F)ccc1Oc1nnc(C(F)(F)F)cc1C(=O)Nc1ccc(C)c(S(C)(=O)=O)c1` [Compound 106, 3-(4-Fluoro-2-methylphenoxy)-N-(4-methyl-3-(methylsulfonyl)phenyl)-6-(trifluoromethyl)pyridazine-4-carboxamide], the pIC50 is, setting by setting: under setting [1], 6.30 to 6.70; under setting [2], 6.30 to 6.70.
As for `COc1ccc(F)cc1Oc1nnc(C(F)(F)F)cc1C(=O)Nc1cccc(C(N)=O)c1` [Compound 80], the negative-log IC50 (pIC50) under setting [1] was 6.00 to 6.30 and the pIC50 under setting [2] was 6.00 to 6.30.
For `NS(=O)(=O)c1cccc(NC(=O)c2cc(C(F)(F)F)nnc2Oc2ccc(F)cc2O)c1` [Compound 131, 3-(4-Fluoro-2-hydroxyphenoxy)-N-(3-sulfamoylphenyl)-6-(trifluoromethyl)pyridazine-4-carboxamide], the pIC50 was 6.00 to 6.30 under setting [1] and 6.30 to 6.70 under setting [2].

(Values after patent US20240336574A1 (LATIGO BIOTHERAPEUTICS, INC., priority 2021, published 2024).)
